Read-outs that look alike come from different tables or passages of the source. Bounds are passed on as bounds.

One data set has as its target T1, Aβ 1-42 aggregates (Homo sapiens, UniProt P05067).
T1 construct: Aβ 1-42 aggregates
As to conditions: read-out: Binding Affinity Ki; cited from earlier work.

Data set [1] can be described thus: MicroPET dynamic scan of rat brain after tail vein injection. Format: in vivo, white Sprague-Dawley rat. Conditions: 30 min dynamic scan. The procedure:
A white Sprague-Dawley rat was injected via tail vein with ˜850 uCi AD-CB-001, formulated in 10% EtOH:water. A dynamic scan was conducted for 30 min on a R4 microPET scanner. The data was reconstructed using 1 min framing.

Data set [2] has as its system Amyloid (AD patient's brain slice). The data set can be described thus: Amyloid autoradiography staining of AD patient's brain slices, grey/white matter binding with wash protocols. Also on record: species or system human. Conditions: for Grey/white matter binding ratio using mild wash conditions: 30%/40%/20% EtOH:water; for order of (non-specific) white matter binding: AD brain slices; for amyloid autoradiography staining (ex vivo), qualitative: AD patient's brain / normal brain; for grey to white matter binding ratio: human AD brain slices, EtOH:water washes. The method, then: (§1) Ex Vivo Competition Assay Using Amyloid (AD patient's brain slice) Autoradiography Staining
A study was conducted to examine the grey to white matter binding ratios for 4 different tracers: CB-001, CB-003, FDDNP and F-PiB (FIG. 7 and FIG. 8). […] After the human brain slices from AD patients were incubated with a given tracer for 30 min, the slices were washed with various EtOH:water solutions in an attempt to optimize the grey-to white matter ratios (FIG. 9). The results were surprising and unexpected in view of previous work performed by other researchers. CB-001 has a slightly higher c Log P than FDDNP (3.8 vs 3.4) and would be expected to have poorer washout than FDDNP based on these values. […] More specifically, the white matter binding of FDDNP is several shades darker than CB-001's white matter binding, indicating low non-specific binding of CB-001.

The nature of data set [3]: MicroPET imaging in WT and App mice. Type of data set: in vivo. Conditions: for brain clearance / washout rate: WT and App mice brain, compared with [18F]PiB.
For data set [4], the target named is T2, Amyloid (AD patient's brain slice) (Homo sapiens, UniProt P05067).
T2 construct: The brain slices were 20 um thick
The data set can be described thus: IC50 determination with [18F]-PiB by ex vivo competition assay using autoradiography staining. Format: binding. As to conditions: for blocking of [18F]-PiB tissue binding, qualitative: human AD brains.
Excerpt: as §1

Data set [5] has as its system Amyloid (AD brain slices). Kind of data set: [18F]-CB001 competition studies on AD brain slices. Type of data set: binding, human.
The target of another data set is Aβ42 soluble aggregates (Homo sapiens, UniProt P05067). Kind of data set: Surface plasmon resonance (Biacore) assay, Aβ42 soluble aggregates. Conditions: SPR; read-out: binding to soluble aggregates. In general terms: In SPR one partner is held on a chip, and binding of the other changes the refractive index at the surface.
For data set [6], the target named is Aβ42 insoluble aggregates (Homo sapiens, UniProt P05067). The data set can be described thus: Surface plasmon resonance (Biacore) assay, Aβ42 insoluble aggregates. As to conditions: SPR; read-out: binding to insoluble aggregates.
A further data set relates to Aβ monomer. Conditions: read-out: Binding Affinity IC50; cited from earlier work.
Another data set concerns the target Aβ fibrils. Conditions: read-out: Binding Affinity Ki; cited from earlier work.
[7] abbreviates: 30 min incubation, PBS, PBS, 20 um AD brain slices.
Setting [8] is: determination 1, vs [18F]-PiB, read-out: IC50 1.
[9] abbreviates: mean of determinations, vs [18F]-PiB, read-out: Average IC50.

T2 sequence (P05067 672-711 limits assumed): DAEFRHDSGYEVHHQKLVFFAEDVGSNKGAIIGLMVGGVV
Sequence of Aβ42 insoluble aggregates (P05067 672-713 limits assumed): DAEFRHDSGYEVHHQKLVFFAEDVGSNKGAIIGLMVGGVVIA
Sequence of Aβ42 soluble aggregates (P05067 672-713 limits assumed): as above
T1 sequence (P05067 672-713 limits assumed): as above

Regarding `CNc1ccc(/C=C2\Oc3ccc([125I])cc3C2=O)cc1` [Aurones], the Ki (as a rule, the equilibrium dissociation constant of an inhibitor or competing ligand from its target) on Aβ 1-42 aggregates was 1.24 nM.
Take `FCCOc1ccc2c(c1)[nH]c1ccccc12` [CB-001, 2-(2-fluoroethoxy)-9H-carbazole]: the “brain entry and washout, qualitative” value in [1] is “Within minutes, the tracer entered the rat brain and quickly washed out”. The “Grey/white matter binding ratio using mild wash conditions” value in data set [2] (setting [7]) was “Poor”. The “Grey/white matter binding ratio using harsh FDDNP wash conditions” value in data set [2] (30 min incubation, PBS, 70%/90%/70% EtOH:water, PBS, 20 um AD brain slices) was “Excellent”. Also, the “order of (non-specific) white matter binding” value in data set [2] is “FDDNP>CB001>[18F]-PiB>CB003”. Also, the “amyloid autoradiography staining (ex vivo), qualitative” value in [2] is “good amyloid binding and little/no white matter binding”. In data set [2] (30 min incubation), the “grey to white matter binding ratio” value was “much better grey to white matter ratio compared to FDDNP”. Besides, in data set [3] (App and WT mice, microPET), the “brain uptake, qualitative” value is reported as “very good brain uptake”. Further, the IC50 (in general, the concentration that inhibits the measured activity by half) in data set [4] (setting [8]) came to 1000 nM; in data set [4] (determination 2, vs [18F]-PiB, read-out: IC50 2), 480 nM; in [4] (setting [9]) it was 740 nM. Besides, the “plaque binding of the tracer in competition studies” value in data set [5] (AD brain slices) is “reversible plaque binding and competition with PiB, and little/no white matter binding”. Also, the “blocking of [18F]-CB001 staining” value in data set [5] (cold competitor, increasing concentrations) is listed as “PiB appears to block tracer binding with the same strength as cold CB001”.
Turning to `FCCOCCOCCOc1ccc2c(c1)[nH]c1ccccc12` [CB-003, 2-(2-(2-(2-fluoroethoxy)ethoxy)ethoxy)-9H-carbazole], the Kd on Aβ42 soluble aggregates was 262 nM; in [6], 9 nM. Moreover, the “Grey/white matter binding ratio using mild wash conditions” value in [2] (setting [7]) is recorded as “Excellent”. Moreover, the “order of (non-specific) white matter binding” value in [2] is “FDDNP>CB001>[18F]-PiB>CB003”. For the same compound, the “amyloid autoradiography staining (ex vivo), qualitative” value was “amyloid deposits were clearly visible in the grey matter with little white matter uptake” in data set [2]; “clearly distinguishes between Alzheimer's and normal brains” in data set [2] (listed as [18F]-CB003). For the same compound, the “grey to white matter binding ratio” value in data set [2] (30 min incubation) is on record as “excellent grey to white matter binding ratios”. Besides, the “brain clearance / washout rate” value was “faster washout rate than 18F-PiB” in data set [3] and “much faster than with [18F]PiB” in [3] (listed as [18F]-CB003). Also, in [3] (microPET), the “larger brain/muscle ratio of App mice compared to WT mice” value is listed as “up to 25%”. Moreover, the IC50 in data set [4] (setting [8]) turned out to be 1100 nM; in data set [4] (determination 6, vs [18F]-PiB, read-out: IC50 6), 900 nM; in data set [4] (determination 13, vs [18F]-PiB, read-out: IC50 13), 920 nM; in data set [4] (setting [9]) it was 973 nM. Also, the “blocking of [18F]-PiB tissue binding, qualitative” value was “still competes with 18F-PiB for binding sites in human AD brains” in data set [4] and “concentration-dependent blocking of [18F]-PiB tissue binding” in [4] (listed as CB003).
On to `Nc1c(/N=N/c2ccc(-c3ccc(/N=N/c4cc(S(=O)(=O)O)c5ccccc5c4N)cc3)cc2)cc(S(=O)(=O)O)c2ccccc12` [Congo Red], for which the IC50 in the data set on Aβ monomer was 2000 to 10000 nM.
In the case of `COc1cc(/C=C/C(=O)/C=C(O)/C=C/c2ccc(O)c(OC)c2)ccc1O` [Curcumin], the IC50 with Aβ monomer was 10000 to 20000 nM.
For `CNc1ccc(-c2nc3ccc(O)cc3s2)cc1` [PiB, reference compound], the Ki at Aβ fibrils was 2.8 nM.
On to `Cc1ccc2c(c1)sc(-c1ccc(N(C)C)cc1)[n+]2C` [Thioflavin T], for which, in the data set on Aβ monomer, the IC50 was > 500000 nM.
